Source: patent publication US20250122171A1, “Substituted Amine Compounds, Compositions and Methods of Use” (Deep Apple Therapeutics, Inc., priority 2023, published 2025)

target: T1, human MRGPRX2 (Homo sapiens, UniProt Q96LB1); assay: MRGPRX2 Activity Assay (IP-1 HTRF, antagonist mode); format: cell-based; conditions: FlpIn TRex-MRGPRX2-HEK293 cells; versus 1 μM Cortistatin-14 agonist; 30 minutes preincubation
T1 construct: expressed in transfected cells; host or cells: FlpIn TRex HEK293 (TRex-MRGPRX2-HEK), doxycycline-induced
T1 sequence (Q96LB1 1-330): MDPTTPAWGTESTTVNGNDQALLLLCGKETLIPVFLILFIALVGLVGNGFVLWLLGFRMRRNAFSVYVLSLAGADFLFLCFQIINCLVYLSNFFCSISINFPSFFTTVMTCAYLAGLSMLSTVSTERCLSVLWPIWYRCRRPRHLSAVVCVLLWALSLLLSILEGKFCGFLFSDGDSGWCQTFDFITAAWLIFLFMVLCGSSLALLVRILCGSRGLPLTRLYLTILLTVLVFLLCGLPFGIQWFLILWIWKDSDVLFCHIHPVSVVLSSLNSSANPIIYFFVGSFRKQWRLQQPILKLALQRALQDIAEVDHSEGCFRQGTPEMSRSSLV
Procedure: FlpIn TRex-MRGPRX2-HEK293 cells (herein TRex-MRPGRX2-HEK) stably transfected to express human MRGPRX2 were maintained at 37° C. with 5% CO2 and grown in DMEM supplemented with 10% FBS, 1% L-Glutamate, 1% penicillin/streptomycin, 100 ug/mL Hygromycin B, and 15 ug/mL Blasticidin.
GOI (MRGPRX2) expression was induced with 100 ng/mL of Doxycycline 18-24 hours prior to experiment, in flask. On the day of experiment, cells were lifted with TripLE Express and seeded in 384-well white walled opaque bottomed, assay plates, at 8,000 cells per well in 5 uL freshly made assay buffer (HBSS, 20 mM HEPES, 0.1% BSA and 10 mM LiCl). Compounds solubilized in 100% DMSO at 30 mM were serially diluted (1:4) first in 100% DMSO, and an intermediate plate of assay buffer was used to establish a final top concentration of 30 uM (in assay plate). Final DMSO concentration was kept constant at 1% across assay plates. […], at 30 mM stock concentration was solubilized in HBSS+0.1% BSA, stored at −20° C. in 5 μL aliquots and discarded after one freeze-thaw cycle. […].
Antagonist equilibrium was established with 30 minutes preincubation, followed by no wash, direct addition, and stimulation of agonist for 1 hour at 37° C./5% CO2. IP-1 standards and HTRF detection reagents were added according to the IP-one Gq kit protocol purchased from CisBio (part number 62IPAPEJ). The plate was read on an EnVision XCite plate reader. The HTRF ratio was then calculated from raw data (channel1/channel2×10,000) and analyzed using either GraphPad Prism or a custom Python script to calculate IC50 using Log[Antagonist] vs. response (4 parameter) nonlinear regression.

| IC50 [nM] | Structure (SMILES) |
| --- | --- |
| 2950 | C[C@H](C(=O)Nc1cn(Cc2ccc(F)cc2F)cn1)N1CCC(F)(F)[C@@H](c2cc[n+]([O-])cc2)C1 (single isomer, unassigned) [Compound 2] |
| > 10000 | C[C@@H](C(=O)Nc1cn(Cc2ccc(F)cc2F)cn1)N1CCC(F)(F)[C@H](c2cc[n+]([O-])cc2)C1 (single isomer, unassigned) [Compound 3] |
| > 10000 | C[C@H](C(=O)Nc1cn(Cc2ccc(F)cc2F)cn1)N1CCC(F)(F)[C@H](c2cc[n+]([O-])cc2)C1 (single isomer, unassigned) [Compound 4] |
| 1780 | C[C@@H](C(=O)Nc1cn(Cc2cc(F)cc(F)c2)cn1)N1CCC(F)(F)[C@@H](c2cc[n+]([O-])cc2)C1 (single isomer, unassigned) [Compound 6] |
| 9290 | C[C@H](C(=O)Nc1cn(Cc2ccc(F)cc2F)c(C(F)(F)F)n1)N1CCC(F)(F)[C@@H](c2cc[n+]([O-])cc2)C1 (single isomer, unassigned) [Compound 8] |
| 1610 | Cc1nc(NC(=O)[C@@H](C)N2CCC(F)(F)[C@@H](c3cc[n+]([O-])cc3)C2)cn1Cc1ccc(F)cc1F (single isomer, unassigned) [Compound 10] |
| 196 | C[C@@H](C(=O)Nc1nc2cc3c(cc2s1)OCO3)N1CCC(F)(F)[C@@H](c2cc[n+]([O-])cc2)C1 (single isomer, unassigned) [Compound 12] |
| 233 | C[C@H](C(=O)Nc1cn([C@@H](C)c2cc(F)cc(F)c2)cn1)N1CCC(F)(F)[C@@H](c2cc[n+]([O-])cc2)C1 (single isomer, unassigned) [Compound 13] |
| 465 | C[C@H](c1cc(F)cc(F)c1)n1cnc(NC(=O)[C@H](C)N2CCC(F)(F)[C@@H](c3cc[n+]([O-])cc3)C2)c1 (single isomer, unassigned) [Compound 14] |
| > 10000 | C[C@@H](C(=O)Nc1cn([C@@H](C)c2cc(F)cc(F)c2)cn1)N1CCC(F)(F)[C@@H](c2cc[n+]([O-])cc2)C1 (single isomer, unassigned) [Compound 15] |
| > 10000 | C[C@H](C(=O)Nc1cn([C@H](C)c2cc(F)cc(F)c2)cn1)N1CCC(F)(F)[C@@H](c2cc[n+]([O-])cc2)C1 (single isomer, unassigned) [Compound 16] |
| 125 | Cc1nc(NC(=O)[C@H](C)N2CCC(F)(F)[C@@H](c3cc[n+]([O-])cc3)C2)cn1Cc1cc(F)cc(C#N)c1 (single isomer, unassigned) [Compound 17] |
| > 10000 | Cc1nc(NC(=O)[C@@H](C)N2CCC(F)(F)[C@@H](c3cc[n+]([O-])cc3)C2)cn1Cc1cc(F)cc(C#N)c1 (single isomer, unassigned) [Compound 18] |
| 193 | Cc1nc(NC(=O)[C@@H](C)N2CCC(F)(F)[C@@H](c3cc[n+]([O-])cc3)C2)cn1Cc1cc(F)cc(F)c1 (single isomer, unassigned) [Compound 20] |
| 124 | Cc1nc(NC(=O)[C@@H](C)N2CCC(F)(F)CC2)cn1Cc1cc(F)cc(F)c1 (single isomer, unassigned) [Compound 22] |
| 700 | Cc1nc(NC(=O)[C@H](C)N2CCOCC2)cn1Cc1cc(F)cc(F)c1 (single isomer, unassigned) [Compound 23] |
| 3910 | Cc1nc(NC(=O)[C@@H](C)N2CCOCC2)cn1Cc1cc(F)cc(F)c1 (single isomer, unassigned) [Compound 24] |
| > 10000 | C[C@@H](C(=O)Nc1cn(Cc2cc(F)cc(F)c2)c(C(F)(F)F)n1)N1CCC(F)(F)[C@@H](c2cc[n+]([O-])cc2)C1 (single isomer, unassigned) [Compound 25] |
| 587 | C[C@@H](C(=O)Nc1coc(Cc2cc(F)cc(F)c2)n1)N1CCC(F)(F)[C@@H](c2cc[n+]([O-])cc2)C1 (single isomer, unassigned) [Compound 27] |
| 432 | C[C@@H](C(=O)Nc1cn(Cc2cc(F)cc(F)c2)cn1)N1CCC(F)(F)[C@@H](c2ccc(=O)[nH]c2)C1 (single isomer, unassigned) [Compound 54] |
| > 10000 | C[C@H](C(=O)Nc1noc(Cc2cc(F)cc(F)c2)n1)N1CCC(F)(F)[C@@H](c2cc[n+]([O-])cc2)C1 (single isomer, unassigned) [Compound 57] |

| IC50 [nM] | Structure (SMILES) |
| --- | --- |
| > 10000 | C[C@@H](C(=O)Nc1nc(Cc2cc(F)cc(F)c2)no1)N1CCC(F)(F)[C@@H](c2cc[n+]([O-])cc2)C1 (single isomer, unassigned) [Compound 58] |
| 432 | C[C@H](C(=O)Nc1nc(Cc2cc(F)cc(F)c2)no1)N1CCC(F)(F)[C@@H](c2cc[n+]([O-])cc2)C1 (single isomer, unassigned) [Compound 59] |
| > 30000 | C[C@@H](C(=O)Nc1cn(Cc2cc(F)cc(F)c2)c(CF)n1)N1CCC(F)(F)[C@@H](c2cc[n+]([O-])cc2)C1 (single isomer, unassigned) [Compound 60] |
| 477 | C[C@H](C(=O)Nc1cn(Cc2cc(F)cc(F)c2)c(CF)n1)N1CCC(F)(F)[C@@H](c2cc[n+]([O-])cc2)C1 (single isomer, unassigned) [Compound 61] |
| 4330 | C[C@@H](C(=O)Nc1cn(Cc2cc(F)cc(F)c2)cn1)N1CCC(F)(F)[C@@H](c2ccc(=O)n(C)c2)C1 (single isomer, unassigned) [Compound 67] |
| > 30000 | C[C@@H](C(=O)Nc1cn(Cc2cc(F)cc(F)c2)cn1)N1CCC(F)(F)[C@H](c2ccc(=O)n(C)c2)C1 (single isomer, unassigned) [Compound 69] |
| > 30000 | C[C@H](C(=O)Nc1cn(Cc2cc(F)cc(F)c2)cn1)N1CCC(F)(F)[C@H](c2ccc(=O)n(C)c2)C1 (single isomer, unassigned) [Compound 70] |
| 2360 | C[C@@H](C(=O)Nc1cn(Cc2cc(F)cc(F)c2)cn1)N1CCC(F)(F)[C@@H](c2c[nH]c(=O)c(CO)c2)C1 (single isomer, unassigned) [Compound 71] |
| 8560 | C[C@@H](C(=O)Nc1cn(Cc2cc(F)cc(F)c2)cn1)N1CCC(F)(F)[C@H](c2c[nH]c(=O)c(CO)c2)C1 (single isomer, unassigned) [Compound 73] |
| > 30000 | C[C@H](C(=O)Nc1cn(Cc2cc(F)cc(F)c2)cn1)N1CCC(F)(F)[C@H](c2c[nH]c(=O)c(CO)c2)C1 (single isomer, unassigned) [Compound 74] |
| > 30000 | C[C@H](C(=O)Nc1cn(Cc2cc(F)cc(F)c2)c(Cl)n1)N1CCC(F)(F)[C@@H](c2cc[n+]([O-])cc2)C1 (single isomer, unassigned) [Compound 81] |
| 1170 | C[C@@H](C(=O)Nc1cn(Cc2cc(F)cc(F)c2)c(C(F)F)n1)N1CCC(F)(F)[C@@H](c2cc[n+]([O-])cc2)C1 (single isomer, unassigned) [Compound 82] |
| 12700 | C[C@@H](C(=O)Nc1nc2ccccc2s1)N1CCC(F)(F)[C@@H](c2cc[n+]([O-])cc2)C1 (single isomer, unassigned) [Compound 84] |
| 1180 | C[C@H](C(=O)Nc1cn2c(n1)CC[C@H]2c1cc(F)cc(F)c1)N1CCC(F)(F)[C@@H](c2cc[n+]([O-])cc2)C1 (single isomer, unassigned) [Compound 486] |
| 13800 | C[C@@H](C(=O)Nc1cn2c(n1)CC[C@H]2c1cc(F)cc(F)c1)N1CCC(F)(F)[C@@H](c2cc[n+]([O-])cc2)C1 (single isomer, unassigned) [Compound 487] |
| 8810 | C[C@H](C(=O)Nc1cn2c(n1)CC[C@@H]2c1cc(F)cc(F)c1)N1CCC(F)(F)[C@@H](c2cc[n+]([O-])cc2)C1 (single isomer, unassigned) [Compound 488] |
| 1640 | C[C@@H](C(=O)Nc1cn(Cc2cc(F)cc(F)c2)c(C(F)F)n1)N1CCC(F)(F)[C@H](c2c[nH]c(=O)c(CO)c2)C1 (single isomer, unassigned) [Compound 491] |
| > 30000 | C[C@@H](C(=O)Nc1cn2c(n1)CC[C@@H]2c1cc(F)cc(F)c1)N1CCC(F)(F)[C@H](c2ccc(=O)[nH]c2)C1 (single isomer, unassigned) [Compound 495] |
| 3470 | C[C@@H](C(=O)Nc1cn2c(n1)CC[C@H]2c1cc(F)cc(F)c1)N1CCC(F)(F)[C@H](c2ccc(=O)[nH]c2)C1 (single isomer, unassigned) [Compound 496] |
| > 30000 | C[C@@H](C(=O)Nc1cn2c(n1)CC[C@@H]2c1cc(F)cc(F)c1)N1CCCCC1 (single isomer, unassigned) [Compound 497] |
